ChEMBL document CHEMBL5214914, “Novel strategies to improve tumour therapy by targeting the proteins MCT1, MCT4 and LAT1” (Eur J Med Chem, 2021)

Tests used:
[1] = Half life in human; type: ADME
[2] = target: T1, Monocarboxylate transporter 1 (Rattus norvegicus, UniProt P53987); assay: Inhibition of MCT1 in rat RBE4 cells assessed as reduction in [14C]lactate uptake measured after 15 mins by liquid scintillation counting analysis; type: cell-based
T1 sequence (P53987 whole entry): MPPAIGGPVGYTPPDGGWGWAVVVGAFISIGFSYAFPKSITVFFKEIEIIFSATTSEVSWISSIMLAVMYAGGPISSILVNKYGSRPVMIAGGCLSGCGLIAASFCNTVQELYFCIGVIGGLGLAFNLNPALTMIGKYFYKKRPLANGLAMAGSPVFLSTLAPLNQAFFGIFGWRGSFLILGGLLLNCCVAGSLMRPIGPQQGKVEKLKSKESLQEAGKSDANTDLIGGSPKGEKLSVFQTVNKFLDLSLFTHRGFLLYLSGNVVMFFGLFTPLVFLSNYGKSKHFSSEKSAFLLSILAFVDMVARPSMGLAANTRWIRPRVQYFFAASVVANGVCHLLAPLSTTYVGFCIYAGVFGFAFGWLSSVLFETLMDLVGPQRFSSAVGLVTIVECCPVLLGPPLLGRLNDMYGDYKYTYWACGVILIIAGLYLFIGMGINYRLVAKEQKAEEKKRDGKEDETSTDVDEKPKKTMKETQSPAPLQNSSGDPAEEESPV

[3] = Drug metabolism in Sprague-Dawley rat plasma at 10 uM measured after 8 hrs; type: ADME, cell-free, Sprague-Dawely; details: read-out: Drug metabolism
BXPC-3 = assay: Antitumor activity against human BXPC-3 cells xenografted in ip dosed mouse assessed as prolongation of animal's mean life span; type: functional
MIA PaCa-2 = assay: Antitumor activity against human MIA PaCa-2 cells xenografted in ip dosed mouse assessed as prolongation of animal's mean life span; type: functional
Raji = assay: Cytotoxicity against human Raji cells; type: functional, cell-based
MCF7 = assay: Antiproliferative activity against human MCF7 cells assessed as inhibition of cell growth; type: functional, cell-based
[4] = target: T2, Large neutral amino acids transporter small subunit 1 (Homo sapiens, UniProt Q01650); assay: Inhibition of LAT1 in human MCF7 cells assessed as inhibition of leucine uptake; type: cell-based
T2 sequence (Q01650 whole entry): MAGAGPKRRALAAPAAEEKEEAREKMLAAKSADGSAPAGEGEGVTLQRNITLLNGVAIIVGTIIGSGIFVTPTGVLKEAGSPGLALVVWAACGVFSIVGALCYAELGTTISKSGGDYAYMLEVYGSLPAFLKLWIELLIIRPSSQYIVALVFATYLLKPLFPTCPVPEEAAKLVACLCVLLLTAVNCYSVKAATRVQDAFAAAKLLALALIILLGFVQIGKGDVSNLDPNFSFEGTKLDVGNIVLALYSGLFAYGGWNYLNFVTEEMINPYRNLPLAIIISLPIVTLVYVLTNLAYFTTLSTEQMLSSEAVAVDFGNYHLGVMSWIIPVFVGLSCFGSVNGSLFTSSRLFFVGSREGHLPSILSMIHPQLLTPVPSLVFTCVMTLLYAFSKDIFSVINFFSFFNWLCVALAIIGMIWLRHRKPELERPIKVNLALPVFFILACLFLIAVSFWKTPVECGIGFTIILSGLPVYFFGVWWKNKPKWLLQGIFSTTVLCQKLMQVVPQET

[5] = target: T2, Large neutral amino acids transporter small subunit 1; assay: Inhibition of LAT1 (unknown origin) expressed in astrocytes assessed as inhibition of [14C]phenylalanine uptake at 50 uM; type: cell-based; details: Astrocyte
[6] = target: T2, Large neutral amino acids transporter small subunit 1; assay: Inhibition of LAT1 (unknown origin) expressed in S2 cells assessed as inhibition of [14C]phenylalanine uptake at 50 uM; type: cell-based

Nc1ccn([C@@H]2O[C@H](CO)[C@@H](O)C2(F)F)c(=O)n1 [GEMCITABINE]
half-life [1]: 9 min

N#C/C(=C\c1ccc(O)cc1)C(=O)O [alpha-CYANO-4-HYDROXYCINNAMIC ACID]
IC50 [2]: 281 nM

C[C@@H](O)[C@H](Nc1ccn([C@@H]2O[C@H](CO)[C@@H](O)C2(F)F)c(=O)n1)C(=O)O
metabolised at 8 h, 10 µM [3]: 20%

CC(C)c1ccc(/C=C(\C#N)C(=O)O)cc1
IC50 [2]: 66 nM

Nc1cc(COc2c(Cl)cc(CC(N)C(=O)O)cc2Cl)c2oc(-c3ccccc3)nc2c1 (stereo not given)
ILS (BXPC-3): 10 days | ILS (MIA PaCa-2): 14 days

CC(C)Cc1nn(C)c(=O)c2c(SCCCO)n(Cc3ccc(C#CCCCOc4ccc(C[C@H](N)C(=O)O)cc4)c4ccccc34)cc12
EC50 (Raji): 0.8 nM

CNC(=O)COc1ccc(C2=C(C#N)C3N=C4C=CC=CC4N3C(NC(=O)c3cccc(C[C@H](N)C(=O)O)c3)=C2C#N)cc1 (stereo not given in full)
IC50 (MCF7): 124 µM | IC50 [4]: 18.2 µM

CC(C)Cc1nn(C)c(=O)c2c(SCCCO)n(Cc3cnc(NCCCCCNC(=O)[C@H](N)CCC(N)=O)c4ccccc34)cc12
EC50 (Raji): 0.16 nM

CC(C)Cc1nn(C)c(=O)c2c(SCCCO)n(Cc3cnc(NCCCCCN)c4ccccc34)cc12
EC50 (Raji): 0.8 nM

NC(Cc1cc(I)c(Oc2ccc(O)c(I)c2)c(I)c1)C(=O)O (stereo not given)
inhibition [5]: 90% | inhibition [6]: 90%

CC(C)Cc1nn(C)c(=O)c2c(SCCCO)n(Cc3ccc(C#CCCCNC(=O)[C@H](N)CCC(N)=O)c4ccccc34)cc12
EC50 (Raji): 4 nM

CC(C)Cc1nn(C)c(=O)c2c(SCCCO)n(Cc3cc(NCCCCCNC(=O)[C@H](N)CCC(N)=O)nc4ccccc34)cc12
EC50 (Raji): 0.8 nM
